CC(=O)Oc1ccc(C(c2ccc(OC(C)=O)cc2)c2ccccn2)cc1
solubility (mole fraction)
Conditions	273.15 K	278.15 K	283.15 K	288.15 K	293.15 K	298.15 K	303.15 K	308.15 K	313.15 K
in 1,4-dioxane	–	–	–	0.00241	0.00274	0.00307	0.00343	0.00378	0.00424
in DMF	0.00201	0.00228	0.00255	0.00291	0.00325	0.00368	0.00407	0.00447	0.00496
in NMP	0.00187	0.0021	0.00236	0.00264	0.00295	0.0033	0.00372	0.00418	0.00474
in acetone	0.00126	0.00153	0.00181	0.00212	0.00246	0.00281	0.00318	0.00359	0.00403
in acetonitrile	0.000983	0.00115	0.00136	0.0016	0.00185	0.00215	0.00243	0.00274	0.00308
in ethanol	4.5e-05	5.8e-05	7.5e-05	9.1e-05	0.00011	0.00013	0.000159	0.000194	0.00024
in ethyl acetate	0.000724	0.000884	0.00107	0.00126	0.00148	0.00171	0.00198	0.00228	0.00263
in isopropanol	3.8e-05	5.2e-05	6.5e-05	8.1e-05	9.8e-05	0.000118	0.000142	0.000166	0.000204
in methanol	4.9e-05	6.6e-05	8.1e-05	0.000101	0.000123	0.000147	0.000171	0.000207	0.000254
in n-butanol	7.1e-05	8.8e-05	0.000106	0.000131	0.00016	0.00019	0.000223	0.000269	0.000324
in n-propanol	5.6e-05	7.3e-05	9.2e-05	0.000115	0.000141	0.00017	0.000199	0.000242	0.000304
in toluene	0.00044	0.000533	0.000648	0.00076	0.000895	0.00105	0.00122	0.00141	0.00161
